In PMC4249827, “A Novel CMKLR1 Small Molecule Antagonist Suppresses CNS Autoimmune Inflammatory Disease” (PLoS ONE, 2014):
Where two headings read alike, the source gives them in different places.

Legend:
C57BL/6 mice [1] = assay: Preliminary in vivo toxicity, daily s.c. dosing for 16 days; design: species or system mouse; conditions: s.c. daily for 16 days, doses up to at least 10 mg/kg per day
Text: Given the lack of adverse reactions in vivo, we next sought to test α-NETA for in vivo efficacy in the EAE model of MS.
The mice were then euthanized and vital organs weighed. Each symbol represents an individual mouse, and the bars indicate mean ± SEM, n = 3 mice per group. […] Control mice received either captisol vehicle or no treatment. […] For days 1–15, n = 52 mice per group; for days 16–27, n = 24–25 mice per group. * p<0.05 by Mann-Whitney U test.

C57BL/6 mice [2] = assay: EAE induced by adoptive transfer of MOG-reactive lymphocytes in C57BL/6 mice; assay type: in vivo, mouse
CCRL2 KO mice = assay: EAE induced by active immunization in CCRL2 KO mice; assay type: in vivo, mouse
[3] = within 5 min; depending on the temperature of incubation
[4] = mouse
[5] = target: G9a histone lysine methyltransferase; design: method as in PubChem, 2014b; ref 23; conditions: Purified enzyme; ref PubChem, 2014b; cited from earlier work
[6] = test system: Marburg virus binding/entry; conditions: Cell-based; ref PubChem, 2014b; cited from earlier work
IL-6/STAT signaling = test system: IL-6/STAT signaling; design: method as in PubChem, 2014a; conditions: Cell-based; ref PubChem, 2014a; cited from earlier work
[7] = target: Choline acetyltransferase; conditions: Purified enzyme; ref Sastry et al., 1988a; cited from earlier work
[8] = test system: Lassa virus binding/entry; conditions: Cell-based; ref PubChem, 2014b; cited from earlier work
[9] = target: 15-Hydroxyprostaglandin dehydrogenase; design: method as in PubChem, 2014b; conditions: Purified enzyme; ref PubChem, 2014b; cited from earlier work
[10] = target: Bacillus subtilis Sfp phosphopantetheinyl transferase; design: method as in PubChem, 2014a; conditions: Purified enzyme; ref PubChem, 2014a; cited from earlier work
GPR154 = test system: GPR154; design: method as in PubChem, 2014b; ref 24; conditions: Cell-based (GPCR); neuropeptide S-induced signaling; ref PubChem, 2014b; cited from earlier work
Acetylcholinesterase = target: Acetylcholinesterase; design: method as in Sastry et al., 1988a; ref 19; conditions: Purified enzyme; ref Sastry et al., 1988a; cited from earlier work
[11] = test system: carnitine acetyletransferase; design: method as in PMID 3174803; conditions: cited from earlier work
Cytochrome p450 1A2 = conditions: cited from earlier work
huCMKLR1 = target: T1, huCMKLR1 (Homo sapiens, UniProt Q99788); assay: β-arrestin2 (β-ARR2) enzymatic complementation assay, CMKLR1/CHO cells; assay type: cell-based; design: host or cells: CHO
T1 sequence (Q99788 1-373): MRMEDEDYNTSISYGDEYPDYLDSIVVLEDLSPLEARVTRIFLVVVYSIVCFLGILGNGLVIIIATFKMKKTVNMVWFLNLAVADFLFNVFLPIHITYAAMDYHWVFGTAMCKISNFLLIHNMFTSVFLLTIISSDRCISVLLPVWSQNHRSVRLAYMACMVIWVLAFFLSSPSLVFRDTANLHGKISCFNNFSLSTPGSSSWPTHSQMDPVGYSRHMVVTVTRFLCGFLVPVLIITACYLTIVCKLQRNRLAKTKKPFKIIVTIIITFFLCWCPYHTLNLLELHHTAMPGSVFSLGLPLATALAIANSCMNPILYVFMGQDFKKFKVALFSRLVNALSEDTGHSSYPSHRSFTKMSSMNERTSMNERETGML
Text: The engagement of a chemoattractant receptor by its cognate ligand stimulates the recruitment of β-arrestin to the carboxyl-terminus of the receptor, an event that results in receptor internalization and termination of G protein-mediated signaling. […] To test this, we used an enzymatic complementation assay (the β-ARR2 assay), whereby the complementary fragments from the β-gal active site are fused to the carboxyl-terminus of CMKLR1 and β-arrestin2. The special association of these molecules leads to enzyme activity, which is detected by a chemiluminescent substrate.

CCR9 = CCR9 (Homo sapiens, UniProt P51686); assay: Transwell chemotaxis of CCR9+ MOLT-4 cells to CCL25
Sequence of CCR9 (P51686 whole entry): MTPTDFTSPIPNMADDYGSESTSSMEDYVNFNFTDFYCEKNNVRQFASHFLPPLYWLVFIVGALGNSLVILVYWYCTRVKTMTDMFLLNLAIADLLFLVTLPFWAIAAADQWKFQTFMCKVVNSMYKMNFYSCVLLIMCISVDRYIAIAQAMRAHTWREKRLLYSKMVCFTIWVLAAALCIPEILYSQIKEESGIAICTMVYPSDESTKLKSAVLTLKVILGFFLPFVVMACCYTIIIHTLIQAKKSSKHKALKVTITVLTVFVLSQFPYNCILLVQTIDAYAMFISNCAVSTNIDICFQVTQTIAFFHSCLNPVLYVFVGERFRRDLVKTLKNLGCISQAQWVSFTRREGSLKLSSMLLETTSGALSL

CXCR5 = CXCR5 (Homo sapiens, UniProt P32302); assay: Transwell chemotaxis of CXCR5+ NC-37 cells to CXCL13
Sequence of CXCR5 (P32302 whole entry): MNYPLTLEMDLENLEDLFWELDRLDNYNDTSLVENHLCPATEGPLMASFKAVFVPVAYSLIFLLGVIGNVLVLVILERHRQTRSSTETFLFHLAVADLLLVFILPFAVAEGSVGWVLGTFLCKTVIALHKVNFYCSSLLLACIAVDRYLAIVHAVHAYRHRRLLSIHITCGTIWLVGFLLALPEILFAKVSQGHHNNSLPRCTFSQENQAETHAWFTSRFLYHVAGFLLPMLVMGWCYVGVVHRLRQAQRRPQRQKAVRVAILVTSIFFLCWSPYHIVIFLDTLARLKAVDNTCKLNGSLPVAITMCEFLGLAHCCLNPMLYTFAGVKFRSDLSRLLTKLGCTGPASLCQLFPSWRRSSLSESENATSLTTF

CXCR7 = CXCR7 (Homo sapiens, UniProt P25106); assay: β-arrestin2 (β-ARR2) assay, CXCR7/CHO cells, CXCL12-stimulated; conditions: 3 µM
Sequence of CXCR7 (P25106 whole entry, species assumed): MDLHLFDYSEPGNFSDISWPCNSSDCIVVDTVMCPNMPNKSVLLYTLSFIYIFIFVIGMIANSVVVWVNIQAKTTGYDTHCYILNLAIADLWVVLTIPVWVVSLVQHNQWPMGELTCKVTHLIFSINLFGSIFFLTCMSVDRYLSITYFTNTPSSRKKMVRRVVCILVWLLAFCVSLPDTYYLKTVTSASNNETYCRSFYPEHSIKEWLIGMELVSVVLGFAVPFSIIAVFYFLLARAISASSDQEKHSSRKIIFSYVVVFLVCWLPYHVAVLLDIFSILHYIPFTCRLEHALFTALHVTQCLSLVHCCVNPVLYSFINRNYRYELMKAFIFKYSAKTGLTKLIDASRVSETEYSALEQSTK

mCMKLR1 = target: T2, mCMKLR1 (Mus musculus, UniProt P97468); assay: Transwell chemotaxis of mCMKLR1/L1.2 transfectants to chemerin
T2 sequence (P97468 1-371): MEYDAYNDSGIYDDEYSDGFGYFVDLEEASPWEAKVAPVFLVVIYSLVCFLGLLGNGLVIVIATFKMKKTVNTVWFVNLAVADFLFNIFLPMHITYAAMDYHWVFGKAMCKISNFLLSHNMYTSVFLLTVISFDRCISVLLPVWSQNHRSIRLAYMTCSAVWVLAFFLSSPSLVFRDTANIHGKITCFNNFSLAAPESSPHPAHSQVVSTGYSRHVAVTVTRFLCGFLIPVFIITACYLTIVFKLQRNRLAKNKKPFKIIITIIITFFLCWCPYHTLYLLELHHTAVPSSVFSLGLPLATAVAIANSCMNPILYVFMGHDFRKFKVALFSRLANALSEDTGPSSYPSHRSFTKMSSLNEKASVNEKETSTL

C57BL/6 mice [12] = assay: Recall proliferation and cytokine (ELISA) responses of LN and spleen cells from treated MOG35-55/CFA-immunized mice; conditions: in vivo treatment over a 10-day period; 72 h restimulation

C[N+](C)(C)CCC(=O)c1cccc2ccccc12.[I-] [α-NETA, 2-(α-naphthoyl)ethyltrimethylammonium iodide]
in vivo tolerability (survival, weight gain, appearance, behavior, organ wet weight) (C57BL/6 mice [1]): well tolerated | suppression of clinical signs beyond first appearance of disease in control mice (C57BL/6 mice [2]; 10 mg/kg daily s.c.): completely suppressed clinical signs for an average of six days | severity of clinical disease (C57BL/6 mice [2]; 10 mg/kg daily s.c., day 15–19): significantly reduced | reduction of the incidence of EAE by day 24 (C57BL/6 mice [2]; 10 mg/kg daily s.c., did not reach statistical significance): ~25% | ability of MOG-reactive lymphocytes from treated donor mice to induce EAE by passive transfer (C57BL/6 mice [2]; donor mice treated once daily for ten days): fully capable of inducing EAE by passive transfer | suppression of clinical signs beyond first appearance of disease in control CCRL2 KO mice (CCRL2 KO mice; 10 mg/kg daily s.c.): completely and significantly suppressed clinical signs for an average of four days | treated mice that did not develop EAE by day 20 (CCRL2 KO mice; CCRL2 KO mice, 10 mg/kg daily s.c.): 40% | severity of clinical disease (CCRL2 KO mice; CCRL2 KO mice, days 8-15 (except for day 10)): significantly reduced | parent compound no longer detectable by mass spectrometry after dissolution in 10% captisol [3]: 40–60% | detection of parent compound after in vivo dosing ([4]; iv, 0.5 mg/kg): unable to detect any of the parent compound | detection of parent compound after in vivo dosing ([4]; sc, 10 mg/kg): unable to detect any of the parent compound | IC50 [5]: 0.5 µM | IC50 [6]: 4.5 µM | IC50 (IL-6/STAT signaling): 6.3 µM | IC50 [7]: 9 µM | IC50 [8]: 10 µM | IC50 [9]: 14 µM | IC50 [10]: 18 µM | IC50 (GPR154): 32 µM | IC50 (Acetylcholinesterase): 300 µM | activity against carnitine acetyletransferase [11]: inactive | IC50 (Cytochrome p450 1A2): 8 µM | IC50 (huCMKLR1): 0.375 ± 0.042 µM | IC50 (huCMKLR1; IC50 (µM), β-arrestin, huCMKLR1, mean±SEM, n = 3-14 independent experiments): 0.38 µM | IC50 (CCR9): ≥ 10 µM | inhibition of migration of CCR9+ MOLT4 cells to CCL25 (CCR9; 1, 3, and 10 µM): did not inhibit | IC50 (CXCR5): ≥ 10 µM | inhibition of migration of CXCR5+ NC-37 cells to CXCL13 (CXCR5; 1, 3, and 10 µM): did not inhibit | inhibition of CXCL12-triggered β-arrestin2 association with CXCR7 (CXCR7): moderately inhibited | IC50 (mCMKLR1): 5 ± 0.4 µM | MOG35-55 recall proliferation and IFNγ and IL-17 production of LN and spleen cells (C57BL/6 mice [12]): comparable to vehicle-treated mice
